Assay [1] concerns NHDF. In words: Cytotoxicity (MTS, 72 h) against normal human fibroblasts. It counts as cell-based. The note with it: for IC50: Homo sapiens, NHDF, MTS, 72 h incubation.
The test system of assay [2] is CT-DNA. Kind of assay: Spectrophotometric DNA intercalation assay. It counts as binding, calf. As to conditions: for Changes in absorbance: bound to CT-DNA (18 µM), 1.5 h 37 °C, Tris-HCl pH 7.9; for % hypochromism / Δε: bound to CT-DNA, for CP-31398 first value (312 nm band); for red shift: wavelengths of maximum absorption, individual vs DNA-bound compound. The text has this:
The fused aromatic rings of the naphthalene moiety and halogen substituents in aniline may guarantee good intercalating properties[71],[72]. On the other hand, the intercalation of DNA may explain the high activity against both the wild-type and p53 mutants as was reported for a series of styrylquinolines. Binding to DNA causes the bases to mismatch or cleave, which results in the arrest of the cell cycle and apoptosis. The effectiveness of the p53 system is one of the most important factors in the response to therapy. We tested the intercalating properties of the selected compounds in a spectrophotometric assay on calf-thymus DNA. The absorption spectra of the tested compounds in the absence and presence of CT-DNA are presented in Figure S1 Supplementary Information and the spectral properties with doxorubicine and CP-31398 are summarized in Table 2.
For the DNA binding studies, Calf-thymus DNA (CT-DNA) was purchased from Sigma- Aldrich. The lyophilized CT-DNA was dissolved in 10 mM Tris-HCl, pH 7.9, mixed gently and left overnight at 4 °C. The purity of the CT-DNA solution was determined by measuring the ratio of UV absorbance at 260 and 280 nm. […] Then, the concentration of CT-DNA was determined from the absorbance at 260 nm using an extinction coefficient of 6600 M^−1cm^−1. The tested compounds including DOX and CP-31398 were dissolved to a concentration of 8.35 mM in DMSO, which was then used as the stock solution for preparing the various concentrations (25, 12.5, 6 and 3 µM) in 1 mL in 10 mM of Tris-HCl (pH 7.9). Afterwards, 18 µM CT-DNA was added to the prepared solutions, which were incubated for 1.5 h at 37 °C with occasional vortexing. The absorption spectra were measured using a Hitachi U-2900 spectrophotometer in the range of 200–500 nm. All absorption spectra were imported into OriginPro 8.0 and compared.

Values joined by “and” are separate entries in the source; they are usually repeats but may differ in a detail not shown here. Equal values may be shown once. “Also recorded” adds a separate entry of the source. Bounds are passed on as bounds.

With `O=C(Nc1ccc(F)c(Cl)c1)c1ccc2ccccc2c1O` [5s], in assay [1], the IC50 was above 25 µM. For the same compound, in assay [1] (cytotoxicity against the normal cell line vs HCT116), the selectivity index is above 30. In assay [2], the Changes in absorbance entry is “hypochromism”, the “% hypochromism” value was determined as 6.5%, the Δε was determined as 255.6 M⁻¹ cm⁻¹ and the red shift is listed as 2 nm.
Take `O=C(Nc1cc(C(F)(F)F)cc(C(F)(F)F)c1Cl)c1ccc2ccccc2c1O` [5u]: in assay [1], the half-maximal inhibitory concentration (IC50) is 16.3 ± 1.28 µM. In addition, in assay [2], the Changes in absorbance entry is listed as “hypochromism”; the “% hypochromism” value is listed as 14%; the Δε is 922.2 M⁻¹ cm⁻¹; the red shift result was “small red-shift and 2 nm”.
For the compound `O=C(Nc1cc(C(F)(F)F)cc(C(F)(F)F)c1)c1ccc2ccccc2c1O` [7f], the IC50 in assay [1] came out at 3.55 ± 0.76 µM. Besides, in assay [2], the Changes in absorbance entry is listed as “rather low hypochromic effect; also recorded: hypochromism”; the “% hypochromism” value is given as 5.7%; the Δε was determined as 244.4 M⁻¹ cm⁻¹; the red shift result was “no wavelength shift and 0 nm”.

(Values after article PMC6476888, “Design and synthesis of anticancer 1-hydroxynaphthalene-2-carboxanilides with a p53 independent mechanism of action” (Scientific Reports, 2019).)
